Measurements published in ChEMBL document CHEMBL5120746, “Novel 5-fluorouracil sensitizers for colorectal cancer therapy: Design and synthesis of S1P receptor 2 (S1PR2) antagonists” (Eur J Med Chem, 2022).

Tests used:
[1] = molecular target: T1, Sphingosine 1-phosphate receptor 2 (Homo sapiens, UniProt O95136); assay: Binding affinity to S1PR2 (unknown origin) by SPR assay
HCT-116 [2] = assay: Reversal of 5-FU resistance against 5-FU resistant DPD expressed human HCT-116 cells assessed as reduction in cell viability incubated for 48 hrs in presence of 5-FU by MTT assay; type: functional, cell-based; conditions: HCT-116, 48 h
SW620/5-FU [3] = assay: Reversal of 5-FU resistance against human SW620/5-FU cells assessed as reduction in cell viability incubated for 48 hrs in presence of 5-FU by MTT assay; type: functional, cell-based
[4] = molecular target: T1, Sphingosine 1-phosphate receptor 2; assay: Antagonist activity at S1PR2 in human SW620/5-FU cells assessed as reduction of DPD-catalyzed 5-FU degradation by measuring intracellular 5-FU level at 20 uM measured after 24 hrs by HPLC-UV analysis; type: functional, cell-based; conditions: filed as antagonist
HCT-116 [5] = assay: Antitumor activity against DPD expressed human HCT-116 cells xenografted in SPF nude mouse assessed as tumor growth inhibition at 15 mg/kg, iv QD for 20 days and measured every 4 days; type: functional; conditions: HCT-116, 480 h, time 20 day, read-out: TGI
SW620/5-FU [6] = assay: Antitumor activity against human SW620/5-FU cells xenografted in SPF nude mouse assessed as tumor growth inhibition at 15 mg/kg, iv QD for 21 days and measured every 4 days; type: functional; conditions: 504 h, time 21 day, read-out: TGI
SW620/5-FU [7] = assay: Antitumor activity against human SW620/5-FU cells xenografted in SPF nude mouse assessed as reduction in tumor weight at 15 mg/kg, iv QD for 21 days; type: functional; set-up: scale not given: the % may be the effect or the level left; conditions: time 21 day
HCT-116 [8] = assay: Antiproliferative activity against 5-FU resistant DPD expressed human HCT-116 cells assessed as reduction in cell viability incubated for 48 hrs by MTT assay; type: functional, cell-based; conditions: HCT-116, 48 h
SW620/5-FU [9] = assay: Antiproliferative activity against human SW620/5-FU cells assessed as reduction in cell viability incubated for 48 hrs by MTT assay; type: functional, cell-based

T1 sequence (O95136 whole entry): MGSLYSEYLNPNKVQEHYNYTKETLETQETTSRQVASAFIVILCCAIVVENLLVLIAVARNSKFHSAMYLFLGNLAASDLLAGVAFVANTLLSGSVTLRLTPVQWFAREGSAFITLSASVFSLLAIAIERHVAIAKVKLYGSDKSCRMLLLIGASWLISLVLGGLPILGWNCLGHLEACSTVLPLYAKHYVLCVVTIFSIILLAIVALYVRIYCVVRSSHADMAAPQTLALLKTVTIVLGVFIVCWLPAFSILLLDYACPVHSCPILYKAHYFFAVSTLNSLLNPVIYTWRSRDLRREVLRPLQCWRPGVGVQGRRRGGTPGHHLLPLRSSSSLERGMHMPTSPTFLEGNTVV

SMILES | Kd [1] [µM] | EC50 (HCT-116 [2]) [µM] | EC50 (SW620/5-FU [3]) [µM] | other results
CC(C)c1cc(NNC(=O)Nc2cc(Cl)nc(Cl)c2)nc2c1c(C(F)(F)F)nn2C | 1.25 | 27.2 | 19.1 | –
Cn1ncc2c(-c3ccc(F)cc3)cc(NNC(=O)N/C=C/c3cccnc3)nc21 | 4.12 | 36.2 | 49.3 | –
Cn1ncc2c(-c3ccc(F)cc3)cc(NNC(=O)Nc3cc(Cl)nc(OCCF)c3)nc21 | 2.79 | 37.2 | 29.3 | –
Cc1nn(C)c2nc(NNC(=O)Nc3cc(Cl)nc(Cl)c3)cc(-c3ccccc3)c12 | 5.32 | 80 | 22.9 | –
Cc1nn(C)c2nc(NNC(=O)Nc3cc(Cl)nc(Cl)c3)cc(-c3ccc(Cl)s3)c12 | 1.98 | 42.1 | 29.4 | –
CCCc1cc(NNC(=O)Nc2cc(Cl)nc(Cl)c2)nc2c1c(C)nn2C | 2.36 | 72.2 | 40.8 | –
CCCCOc1cc(NC(=O)NNc2cc(-c3ccc(OC)cc3)c3cnn(C)c3n2)cc(Cl)n1 | 4.15 | 36.5 | 39.2 | –
CCCCOc1cc(NC(=O)NNc2cc(-c3ccc(F)cc3)c3cnn(C)c3n2)cc(Cl)n1 | 2.65 | 49.4 | 29.3 | –
COc1cc(NC(=O)NNc2cc(-c3ccccc3)c3cnn(C)c3n2)cc(Cl)n1 | 3.64 | 31.2 | 28.7 | –
Cc1nn(C)c2nc(NNC(=O)Nc3cc(Cl)nc(Cl)c3)cc(C3CC3)c12 | 3.65 | 67.7 | 80.8 | –
COc1ccc(-c2cc(NNC(=O)Nc3cc(Cl)nc(Cl)c3)nc3c2c(C)nn3C)cc1 | 1.02 | 82.3 | 9.7 | –
COc1ccc(-c2cc(NNC(=O)Nc3cc(Cl)nc(OC)c3)nc3c2cnn3C)cc1 | 1.98 | 54.2 | 48.8 | –
COc1cc(NC(=O)NNc2cc(-c3ccc(F)cc3)c3cnn(C)c3n2)cc(OC)c1OC | 4.44 | 45.3 | 39.2 | –
CCCOc1cc(NC(=O)NNc2cc(-c3ccc(OC)cc3)c3cnn(C)c3n2)cc(Cl)n1 | 3.14 | 33.2 | 37.2 | –
Cc1nn(C)c2nc(NNC(=O)Nc3cc(Cl)nc(Cl)c3)cc(C(C)C)c12 | 1.96 | 18.3 | 58.6 | Activity [4]: 1.75 µM
Cc1c(Cc2ccccc2)c(NNC(=O)Nc2cc(Cl)nc(Cl)c2)nc2c1cnn2C | 0.87 | 13.6 | 21.4 | –
COc1ccc(-c2cc(NNC(=O)Nc3cc(Br)nc(Br)c3)nc3c2cnn3C)cc1 | 6.32 | 45.2 | 54.1 | –

SMILES | Kd [1] [µM] | EC50 (HCT-116 [2]) [µM] | EC50 (SW620/5-FU [3]) [µM] | other results
CCCc1cc(NNC(=O)Nc2cc(Cl)nc(Cl)c2)nc2c1cnn2C | 1.4 | 76.2 | 38.7 | –
Cn1ncc2c(-c3ccc(F)cc3)cc(NNC(=O)Nc3cc(Cl)cc(Cl)c3)nc21 | 4.98 | 39.1 | 54.3 | –
COc1ccc(-c2cc(NNC(=O)Nc3cc(Cl)nc(OC(C)C)c3)nc3c2cnn3C)cc1 | 2.32 | 39.8 | 47.1 | –
COc1cc(NC(=O)NNc2cc(-c3ccc(F)cc3)c3cnn(C)c3n2)cc(Cl)n1 | 1.65 | 75.3 | 24.1 | –
CCN(CC)c1cc(NC(=O)NNc2cc(-c3ccc(F)cc3)c3cnn(C)c3n2)cc(Cl)n1 | 3.15 | 29.4 | 37 | –
O=c1[nH]cc(F)c(=O)[nH]1 [FLUOROURACIL] | – | – | – | inhibition in vivo at 15 mg/kg (HCT-116 [5]): 20.3%; inhibition in vivo at 15 mg/kg (SW620/5-FU [6]): 21.2%; Activity (SW620/5-FU [7]): 27.23%; EC50 (HCT-116 [8]): > 1000 µM; EC50 (SW620/5-FU [9]): > 1000 µM
Cn1ncc2c(-c3ccc(F)cc3)cc(NNC(=O)Nc3cc(F)cc(F)c3)nc21 | 3.98 | 46.2 | 47.4 | –
Cc1nn(C)c2nc(NNC(=O)Nc3cc(Cl)nc(Cl)c3)cc(C3CCCCC3)c12 | 2.01 | 38 | 22 | –
CC(C)c1cc(NNC(=O)Nc2cc(Cl)nc(Cl)c2)nc2c1cnn2C | 0.78 | 17.2 | 50.1 | –
CCCc1cc(NNC(=O)Nc2cc(Cl)nc(Cl)c2)nc2c1c(C(F)(F)F)nn2C | 0.89 | 38.2 | 11.7 | –
Cc1cc(NNC(=O)Nc2cc(Cl)nc(Cl)c2)nc2c1c(C)nn2C | 11 | > 100 | > 100 | –
COc1ccc(-c2cc(NNC(=O)Nc3cc(Cl)nc(Cl)c3)nc3c2cnn3C)cc1 | 0.52 | 12.3 | 18.4 | –
Cc1nn(C)c2nc(NNC(=O)Nc3cc(Cl)nc(Cl)c3)cc(-c3ccco3)c12 | 6.52 | 69.2 | > 100 | –
Cn1ncc2c(-c3ccccc3)cc(NNC(=O)Nc3cc(Cl)nc(Cl)c3)nc21 | 1.02 | 6.24 | 76.9 | –
Cc1ccc(NC(=O)NNc2cc(-c3ccc(F)cc3)c3cnn(C)c3n2)cc1Nc1nccc(-c2cccnc2)n1 | 5.96 | 39.1 | 33.1 | –
Cn1nc(C(F)(F)F)c2c(-c3ccccc3)cc(NNC(=O)Nc3cc(Cl)nc(Cl)c3)nc21 | 0.94 | 18.1 | 13.1 | –
Cc1nn(C)c2nc(NNC(=O)Nc3cc(Cl)nc(Cl)c3)cc(-c3ccc(F)cc3)c12 | 0.98 | 25.2 | 17.4 | –
